What was measured:
[1] = system: mice; experiment: In vivo transfection with Fluc-mRNA lipid nanoparticle (LNP preparation), live imaging of fluorescence intensity; conditions: 0.5 mg/kg
Experimental: According to the method described in Example II , LNP lipid nanoparticles of Fluc-mRNA (Maxirna FLuc mRNA, 1 mg/mL), SM-102 (CAS number: 2089251-47-6, A.V.T (Shanghai) Pharmaceutical Co., Ltd.), and positive control 1 (US10195156B2, it was prepared according to the method described in the above embodiment, the main difference lay in replacing 2-((3-aminopropyl)amino)ethane-1-ol with 2-((2-aminoethyl)amino)ethane-1-ol, the structure was as shown in FIG. 1) were prepared respectively. Cholesterol (Chol), DSPC, DOPE, and DMG-PEG2000 were purchased from A.V.T (Shanghai) Pharmaceutical Co., Ltd. Mice were randomly selected, and the lipid nanoparticles were injected intravenously and intramuscularly (4 mice per group) at a dosage of 0.5 mg/kg. Tris and Fluc-mRNA were directly injected as controls. After 6 hours, 200 ul of 10 mg/ml D-luciferin potassium salt was respectively injected into each mouse through the tail vein. After 10 minutes, the mice were placed under a live imaging system to observe the total fluorescence intensity of each mouse and take photos for recording. After 24 hours, the mice were placed under the live imaging system to observe the total fluorescence intensity of each mouse and take photos for recording. Table 2: Preparation parameters of each LNP
(§1) LNP lipid nanoparticles of Fluc-mRNA were respectively prepared using the method described in Example II. Mice were randomly selected, and the lipid nanoparticles were injected intramuscularly (2 mice per group) at a dosage of 0.5 mg/kg. Tris was directly injected as a control. After 6 hours, 200 ul of 10 mg/ml D-luciferin potassium salt was respectively injected into each mouse through the tail vein. After 10 minutes, the mice were placed under a live imaging system to observe the total fluorescence intensity of each mouse and take photos for recording. After 24 hours, the mice were placed under the live imaging system to observe the total fluorescence intensity of each mouse and take photos for recording. Table 3: Preparation parameters of each LNP
as §1, with “II .” for “II.”, “(3” for “(2”, “4:” for “3:”

[2] = Size and polydispersity index (PDI) of the lipid nanoparticle by dynamic light scattering; assay type: physicochemical; conditions: LNP encapsulating eGFP mRNA, ionizable lipid/DOPE/cholesterol/DMG-PEG2000 50/10/48.25/1.25 mol%, N/P 12; for Particle size: in nm (unit assumed)
How it was run: (§2)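 LNPs were made by microfluidic mixing of ionizable lipid/DOPE/cholesterol/DMG-PEG2000 (50/10/48.25/1.25 mol%) in ethanol with eGFP mRNA in 20 mM citrate pH 6.1, N/P 12, then ultrafiltered into DPBS and 0.2 µm filtered. Size and PDI by DLS at 173° backscatter; encapsulation by Ribogreen.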

[3] = Encapsulation efficiency of the lipid nanoparticle (eGFP mRNA) by Ribogreen method; assay type: physicochemical; conditions: LNP encapsulating eGFP mRNA, ionizable lipid/DOPE/cholesterol/DMG-PEG2000 50/10/48.25/1.25 mol%, N/P 12
How it was run: as §2

[4] = system: DC2.4 cells; experiment: In vitro transfection of cells with eGFP-mRNA lipid nanoparticle (LNP preparation), fluorescence imaging and flow cytometry; assay type: cell-based, mouse; conditions: DC2.4 cells, 200 ng of mRNA per well, after 24 hours; for Positive rate, %: eGFP positivity rate
How it was run: (§3)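 Mouse bone marrow-derived DC2.4 dendritic cells seeded at 2 × 10^5 cells/well in DMEM with 10% FBS, transfected with eGFP-mRNA LNPs the next day at 37 °C, 5% CO2. After 24 hours, viability, eGFP-positive rate and mean fluorescence intensity read by fluorescence imaging and flow cytometry.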

[5] = as above; assay type: cell-based, mouse; conditions: mouse, dc2.4 cells, 200 ng of mRNA per well, after 24 hours; read-out: Cell viability, %
How it was run: as §3

[6] = Fluc-mRNA LNP of Table 2 (DOPE), intramuscular

Particle size [2]	Encapsulation rate, % [3] [%]	PDI [2]	Structure (SMILES)	expression in the chest and abdomen [1, 6]	fluorescence intensity, intramuscular injection administration [1, 6]	fluorescence intensity ([1]; Fluc-mRNA LNP of Table 2 (DOPE), intravenous and intramuscular injection, 6 and 24 hours)	Cell viability, % ([4]; 1440 min) [%]	Positive rate, % [4] [%]	whole-body expression ([1]; Fluc-mRNA LNP of Table 3 (DSPC), intramuscular, 6 and 24 hours)	viability at 24 h [5] [%]
–	–	–	CCCCCC/C=C\COC(=O)CCCCCCCN(CCCCCCCC(=O)OC/C=C\CCCCCC)CCCN(CCCCCCCC(=O)OC/C=C\CCCCCC)CCCCCCCC(=O)OC/C=C\CCCCCC [Example 21, Tetra((Z)-non-2-en-1-yl)8,8',8",8‴-(propane-1,3-diyldi(azanetriyl))tetraoctanoate]	much lower than that of SM-102	still maintain high fluorescence intensity	stronger than that of positive control 1 and comparable to SM-102	–	–	–	–
99.10	99.10	–	CCCCC/C=C\C/C=C\CCCCCCCCOC(=O)CCCN(CCCO)CCCN(CCCC(=O)OCCCCCCCC/C=C\C/C=C\CCCCC)CCCC(=O)OCCCCCCCC/C=C\C/C=C\CCCCC [Example 81, Di((9Z,12Z)-octadeca-9,12-dien-1-yl)4,4'-((3-((3-hydroxypropyl)(4-(((9Z,12Z)-octadeca-9,12-dien-1-yl)oxo)-4-oxobutyl)amino)propyl)azanediyl)dibutanoate]	–	–	–	76.4	93.39	even better than SM-102	–
98.21	93.28	0.17	CCCCCCCCCCOC(=O)CCCN(CCO)CCCN(CCCC(=O)OCCCCCCCCCC)CCCC(=O)OCCCCCCCCCC [Example 93, Decyl 4-(20-(2-hydroxyethyl)-12,24-dioxo-16,20-diaza-11,25-dioxapentatriacontane-16-yl)butanoate]	–	–	–	–	85.37	–	82.6
–	96.63	0.19	CCCCCCCCCCCCOC(=O)CCCN(CCO)CCCN(CCCC(=O)OCCCCCCCCCCCC)CCCC(=O)OCCCCCCCCCCCC [Example 94, Dodecyl 4-(22-(2-hydroxyethyl)-14,26-dioxo-18,22-diaza-13,27-dioxanonatriacontane-18-yl)butanoate]	–	–	–	–	88.07	–	98.6
–	92.93	0.11	CCCCC/C=C\C/C=C\CCCCCCCCOC(=O)CCCCCCCN(CCCO)CCCN(CCCCCCCC(=O)OCCCCCCCC/C=C\C/C=C\CCCCC)CCCCCCCC(=O)OCCCCCCCC/C=C\C/C=C\CCCCC [Example 95]	–	–	–	–	93.13	–	95.9
89.51	91.32	0.14	CCCCCCCCCCCOC(=O)CCCCCCCN(CCCCCCCC(=O)OCCCCCCCCCCC)CCCN(CCCO)CCCN(CCCCCCCC(=O)OCCCCCCCCCCC)CCCCCCCC(=O)OCCCCCCCCCCC [Example 98, Tetraundecyl 8,8',8",8"-(((3-hydroxypropyl)azanediyl)di(propane-3,1-diyl))di(azanetriyl)tetraoctanoate]	–	–	–	–	92.36	–	96.9
–	92.32	0.16	CCCCCCCCCCCCCOC(=O)CCCN(CCCO)CCCCCN(CCCC(=O)OCCCCCCCCCCCCC)CCCC(=O)OCCCCCCCCCCCCC [Example 100, 4,4'-ditridecyl((5-((3-hydroxypropyl)(4-oxo-4-(tridecyloxy)butyl)amino)pentyl)azetidinyl)dibutanoate]	–	–	–	–	93.24	–	99
–	92.68	0.14	CCCCCCCCCCCCCOC(=O)CCCN(CCCO)CCCCN(CCCC(=O)OCCCCCCCCCCCCC)CCCC(=O)OCCCCCCCCCCCCC [Example 101, 4,4'-ditridecyl((4-((3-hydroxypropyl)(4-oxo-4-(tridecyloxy)butyl)amino)butyl)azetidinyl)dibutanoate]	–	–	–	–	94.85	–	93.4
94.10	94.31	0.14	CCCCCCCCCCCCOC(=O)CCCN(CCCO)CCCCN(CCCC(=O)OCCCCCCCCCCCC)CCCC(=O)OCCCCCCCCCCCC [Example 103]	–	–	–	–	93.80	–	95.3
–	95.12	0.16	CCCCC/C=C\C/C=C\CCCCCCCCOC(=O)CCCN(CCCO)CCCCN(CCCC(=O)OCCCCCCCC/C=C\C/C=C\CCCCC)CCCC(=O)OCCCCCCCC/C=C\C/C=C\CCCCC [Example 104]	–	–	–	–	92.63	–	96.7
–	65.99	0.28	CCCCCCCCCCCOC(=O)/C=C/CN(C/C=C/C(=O)OCCCCCCCCCCC)CCCN(C/C=C/C(=O)OCCCCCCCCCCC)CCCO [Example 106]	–	–	–	–	78.77	–	93.9
–	95.47	0.13	CCCCCCCCCCCOC(=O)CCCCN(CCO)CCCN(CCCCC(=O)OCCCCCCCCCCC)CCCCC(=O)OCCCCCCCCCCC [Example 107]	–	–	–	–	92.10	–	92.9
95.34	92.30	0.13	CCCCC/C=C\C/C=C\CCCCCCCCOC(=O)CCCN(CCCO)CCCN(CCCC(=O)OCCCCCCCC/C=C\C/C=C\CCCCC)CCCC(=O)OCCCCCCCC/C=C\C/C=C\CCCCC [Example 108]	–	–	–	–	93.99	–	92.3
–	79.70	0.33	CCCCCCCCCCCOC(=O)CCCN(CCO)CCCN(CCCC(=O)OCCCCCCCCCCC)C(=O)CCC(=O)OCCCCCCCCCCC [Example 109]	–	–	–	–	71.17	–	89
96.92	92.91	0.12	CCCCC/C=C\C/C=C\CCCCCCCCOC(=O)CCCCN(CCCO)CCCN(CCCCC(=O)OCCCCCCCC/C=C\C/C=C\CCCCC)CCCCC(=O)OCCCCCCCC/C=C\C/C=C\CCCCC [Example 111]	–	–	–	–	95.82	–	91
89.42	91.22	0.11	CCCCCCCCCCCCOC(=O)CCCN(CCCO)CCCN(CCCC(=O)OCCCCCCCCCCCC)CCCC(=O)OCCCCCCCCCCCC [Example 112, 4,4'-didodecyl((3-((4-(dodecoxy)-4-oxobutyl)(3-hydroxypropyl)amino)propyl)azetidinyl)dibutanoate]	–	–	–	–	95.39	–	92.3
88.62	91.23	0.14	CCCCCCCCCCOC(=O)CCCN(CCCO)CCCN(CCCC(=O)OCCCCCCCCCC)CCCC(=O)OCCCCCCCCCC [Example 113, Didecyl 4,4'-((3-((4-(decyloxy)-4-oxobutyl)(3-hydroxypropyl)amino)propyl)azetidinyl)dibutanoate]	–	–	–	–	92.51	–	93.2
89.25	92.78	0.16	CCCCC/C=C\C/C=C\CCCCCCCCOC(=O)CCCCCCN(CCCO)CCCN(CCCCCCC(=O)OCCCCCCCC/C=C\C/C=C\CCCCC)CCCCCCC(=O)OCCCCCCCC/C=C\C/C=C\CCCCC [Example 114]	–	–	–	–	91.74	–	93.4

— patent publication EP4678629A1, “IONIZABLE LIPID MOLECULE, PREPARATION METHOD THEREFOR AND USE THEREOF” (Maxirna (Shanghai) Pharmaceutical Co., Ltd., priority 2023, dated 2024)
